Assay results taken from PubChem BioAssay AID258 (DTP/NCI, 2004).
“And” between values parts separate entries of the source, which are not always exact repeats. Equal values may be shown once. Inconclusive results and toxic doses are left out. Starred links: 1 amine or outer side, 2 acyl side, 3 side chain; linkers in the order of their positions; H or OH if unused. Positions of bridges follow the written chain, without caps; N, C: chain ends. Non-standard residues stand in square brackets, D forms with d. Residues, ends and D or L forms follow the SMILES beside them. Chains are numbered I, II in the order given. Actinocin(9to1) = Cc1c2oc3c(C)ccc(C(=O)[*:1])c3nc-2c(C(=O)[*:2])c(N)c1=O; aThr = C[C@H](O)[C@H](N)C(=O)O; NMeV = CN[C@H](C(=O)O)C(C)C; Sar = CNCC(=O)O

Test system: CD2F1 mice, L1210 leukemia sc, survival T/C
Experiment: NCI In Vivo Anticancer Drug Screen. Data for tumor model L1210 Leukemia (subcutaneous) in CD2F1 (CDF1) mice
Settings: endpoint: median survival time, higher = longer survival
Summary of the method: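 Antitumor activity is scored in tumor-bearing mice by comparing survival or tumor size of treated animals against vehicle-treated controls, reported as T/C.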

For `Cc1c2oc3c(C)ccc(C(=O)N[C@@H]4C(=O)N[C@H](C(C)C)C(=O)N5CCC[C@H]5C(=O)N(C)CC(=O)N(C)[C@@H](C(C)C)C(=O)O[C@H]4C)c3nc-2c(C(=O)N[C@@H]2C(=O)N[C@H](C(C)C)C(=O)N3CCC[C@H]3C(=O)N(C)CC(=O)N(C)[C@@H](C(C)C)C(=O)O[C@H]2C)c(N)c1=O` (I: [aThr][dV]P[Sar][NMeV] / II: [aThr][dV]P[Sar][NMeV]; ester I:1-I:C, II:1-II:C; linker I:N-II:N via Actinocin(9to1)), the T/C (dose: 0.05 mg/kg/injection, schedule: Q01DX009 (sc), vehicle: saline) was 101 % of control, the T/C (dose: 0.05 mg/kg/injection, schedule: Q01DX Z (sc), vehicle: other) was 108 % of control and 100 % of control and the T/C (dose: 0.05 mg/kg/injection, schedule: Q01DX Z (sc), vehicle: saline) was 100 % of control. The T/C (dose: 0.08 mg/kg/injection, schedule: Q01DX Z (sc), vehicle: other) was 112 % of control, the T/C (dose: 0.08 mg/kg/injection, schedule: Q07DX Z (sc), vehicle: other) was 100 % of control and the T/C (dose: 0.09 mg/kg/injection, schedule: Q01DX Z (sc), vehicle: other) was 116 % of control. For the same molecule, the T/C (dose: 0.1 mg/kg/injection, schedule: Q01DX009 (sc), vehicle: saline) was 113 % of control, the T/C (dose: 0.13 mg/kg/injection, schedule: Q01DX009 (sc), vehicle: saline) was 122 % of control and the T/C (dose: 0.14 mg/kg/injection, schedule: Q07DX Z (sc), vehicle: other) was 112 % of control. The T/C (dose: 0.15 mg/kg/injection, schedule: Q01DX009 (sc), vehicle: saline) was 120 % of control, the T/C (dose: 0.2 mg/kg/injection, schedule: Q01DX009 (sc), vehicle: saline) was 105 % of control and 113 % of control and the T/C (dose: 0.23 mg/kg/injection, schedule: Q07DX Z (sc), vehicle: other) was 112 % of control. The T/C (dose: 0.25 mg/kg/injection, schedule: Q01DX009 (sc), vehicle: saline) was 93 % of control, the T/C (dose: 0.3 mg/kg/injection, schedule: Q01DX009 (sc), vehicle: saline) was 95 % of control and the T/C (dose: 0.39 mg/kg/injection, schedule: Q07DX Z (sc), vehicle: other) was 112 % of control. The T/C (dose: 0.42 mg/kg/injection, schedule: Q01DX Z (sc), vehicle: other) was 116 % of control, the T/C (dose: 0.7 mg/kg/injection, schedule: Q01DX Z (sc), vehicle: other) was 112 % of control and the T/C (dose: 1.17 mg/kg/injection, schedule: Q01DX Z (sc), vehicle: other) was 100 % of control. For the same molecule, the T/C (dose: 12.0 micrograms/kg/injection, schedule: Q01DX009 (ip), vehicle: saline) was 101 % of control, the T/C (dose: 12.0 micrograms/kg/injection, schedule: Q01DX009 (sc), vehicle: saline) was 101 % of control and the T/C (dose: 25.0 micrograms/kg/injection, schedule: Q01DX009 (ip), vehicle: saline) was 102 % of control. The T/C (dose: 25.0 micrograms/kg/injection, schedule: Q01DX009 (sc), vehicle: saline) was 100 % of control, the T/C (dose: 50.0 micrograms/kg/injection, schedule: Q01DX009 (ip), vehicle: saline) was 98 % of control and the T/C (dose: 50.0 micrograms/kg/injection, schedule: Q01DX009 (sc), vehicle: saline) was 101 % of control. The T/C (dose: 100.0 micrograms/kg/injection, schedule: Q01DX009 (ip), vehicle: saline) was 113 % of control, the T/C (dose: 100.0 micrograms/kg/injection, schedule: Q01DX009 (sc), vehicle: saline) was 103 % of control and 119 % of control and the T/C (dose: 200.0 micrograms/kg/injection, schedule: Q01DX009 (ip), vehicle: saline) was 107 % of control. For the same molecule, the T/C (dose: 200.0 micrograms/kg/injection, schedule: Q01DX009 (sc), vehicle: saline) was 114 % of control and 118 % of control and the T/C (dose: 400.0 micrograms/kg/injection, schedule: Q01DX009 (sc), vehicle: saline) was 112 % of control and 86 % of control.

With `CC[C@](O)(C(=O)O)c1cc2n(c(=O)c1CO)Cc1cc3ccccc3nc1-2` the T/C (dose: 1.33 mg/kg/injection, schedule: Q01DX009 (ip), vehicle: saline) was 121 % of control, the T/C (dose: 1.33 mg/kg/injection, schedule: Q01DX009 (sc), vehicle: saline) was 122 % of control and the T/C (dose: 2.0 mg/kg/injection, schedule: Q01DX009 (ip), vehicle: saline) was 154 % of control. For the same molecule, the T/C (dose: 4.0 mg/kg/injection, schedule: Q01DX009 (ip), vehicle: saline) was 113 % of control, the T/C (dose: 5.0 mg/kg/injection, schedule: Q01DX009 (sc), vehicle: saline) was 101 % of control and the T/C (dose: 8.0 mg/kg/injection, schedule: Q01DX009 (ip), vehicle: saline) was 86 % of control. The T/C (dose: 8.0 mg/kg/injection, schedule: Q01DX009 (sc), vehicle: saline) was 86 % of control, the T/C (dose: 12.0 mg/kg/injection, schedule: Q01DX009 (sc), vehicle: saline) was 115 % of control and the T/C (dose: 16.0 mg/kg/injection, schedule: Q01DX009 (sc), vehicle: saline) was 113 % of control.

`CC[C@@]1(O)C(=O)OCc2c1cc1n(c2=O)Cc2cc3ccccc3nc2-1` was tested, and the T/C (dose: 0.13 mg/kg/injection, schedule: Q01DX Z (sc), vehicle: carboxymethylcellulose (CMC)) was 111 % of control, the T/C (dose: 0.22 mg/kg/injection, schedule: Q01DX Z (sc), vehicle: carboxymethylcellulose (CMC)) was 111 % of control and the T/C (dose: 0.6 mg/kg/injection, schedule: Q01DX Z (sc), vehicle: carboxymethylcellulose (CMC)) was 111 % of control. For the same molecule, the T/C (dose: 1.0 mg/kg/injection, schedule: Q01DX Z (sc), vehicle: carboxymethylcellulose (CMC)) was 122 % of control.

In the case of `CC(C)CCNc1ncnc2c1cnn2C`, the T/C (dose: 23.0 mg/kg/injection, schedule: Q01DX Z (sc), vehicle: water) is reported as 100 % of control, the T/C (dose: 39.0 mg/kg/injection, schedule: Q01DX Z (sc), vehicle: water) is reported as 100 % of control and the T/C (dose: 65.0 mg/kg/injection, schedule: Q01DX Z (sc), vehicle: water) is reported as 100 % of control. The T/C (dose: 108.0 mg/kg/injection, schedule: Q01DX Z (sc), vehicle: water) was 109 % of control and the T/C (dose: 180.0 mg/kg/injection, schedule: Q01DX Z (sc), vehicle: water) was 100 % of control.

For `CC(=O)Oc1ccc[nH]c1=O`, the T/C (dose: 16.7 mg/kg/injection, schedule: Q03HX027 (ip), vehicle: saline with Tween-80) was 107 % of control, the T/C (dose: 33.0 mg/kg/injection, schedule: Q03HX027 (ip), vehicle: saline with Tween-80) was 104 % of control and the T/C (dose: 50.0 mg/kg/injection, schedule: Q01DX009 (ip), vehicle: saline with Tween-80) was 98 % of control. For the same molecule, the T/C (dose: 66.7 mg/kg/injection, schedule: Q03HX027 (ip), vehicle: saline with Tween-80) was 96 % of control, the T/C (dose: 100.0 mg/kg/injection, schedule: Q01DX009 (ip), vehicle: saline with Tween-80) was 98 % of control and the T/C (dose: 133.0 mg/kg/injection, schedule: Q03HX027 (ip), vehicle: saline with Tween-80) was 105 % of control. The T/C (dose: 200.0 mg/kg/injection, schedule: Q01DX009 (ip), vehicle: saline with Tween-80) was 98 % of control, the T/C (dose: 266.0 mg/kg/injection, schedule: Q03HX027 (ip), vehicle: saline with Tween-80) was 108 % of control and the T/C (dose: 800.0 mg/kg/injection, schedule: Q01DX009 (ip), vehicle: saline with Tween-80) was 117 % of control.
